According to US20190216751A1, “Compositions and Methods for the Treatment and Prevention of Cancer” (California State University Northridge, priority 2017, published 2019):

Columns and labels:
E-cadherin in 4T1 cells = assay: Western blot E-cadherin, TGFβ-induced EMT; format: cell-based, mouse; settings: 10 μM each drug, re-treated with TGFβ 2.5 ng/mL at 48 hours, 96-hour time point
Protocol: Next, the inventors investigated whether blockade of HDAC6 and DHPS activity could further suppress TGFβ-induced EMT either independently or simultaneously. To test this, 4T1 cells were treated with either TubA at 10 μM, GC7 at 10 μM or both for 48 hours. At this time point, protein lysates were collected as well as phase-contrast images (FIGS. 6B and 6C). At that same time point, the media was changed and the cells were re-treated with the same drugs at the same concentrations; however, this time with the addition of TGFβ at 2.5 ng/mL. The inventors collected protein lysates and phase-contrast images just one day post TGFβ treatment, calling this the 72-hour time point (FIGS. 6B and 6C). In addition, the inventors collected mRNA, protein lysates, phase-contrast and immunofluorescences images two days post TGFβ treatment, calling this the 96-hour time point (FIGS. 6A, 6B, 6C and 6D).
Cell lines were plated in a 6 well plate at 1e5 cells/mL and left to attach overnight. Cells were then treated if necessary then lysed using Radioimmunoprecipitation assay (RIPA) buffer containing phosphatase and protease inhibitors and left to rotate at 4° C. for at least 3 hours. Lysates were then cleared by centrifugation at 12,000 RPM for 10 minutes at 4° C. Protein concentrations were determined using Bradford Assay. […] Band intensity graphs were quantified using Fiji software after image thresholding.

MDA-MB-468 cells = assay: Cell proliferation assay (CellTiter 96 AQueous One, MTS); format: cell-based, human; settings: TubA 1 μM pretreatment, GC7 0.1 nM to 1 mM
Description: (§1) The next research questions revolved around asking how TGFβ is regulating eIF5A and what other proteins might be involved to completely block TGFβ-induced EMT. This led to histone deacetylase enzyme 6 (HDAC6). HDAC6 has been previously reported to be responsible for the deacetylation of eIF5A in the nucleus in order to make it readily available for hypusination and later transport out in the cytoplasm for functioning as a translation factor. To determine if it were possible to further increase the efficacy or potency of GC7, the inventors co-treated with Tubastatin A (an HDAC6 inhibitor) in 4T1 and 67NR cells as well as MDA-MB-468 cells which initially were not very sensitive to GC7. Triple negative human breast cancer cell line, BT547, was also used to see if another cell line representative of this breast cancer subtype was sensitive towards DHPS and HDAC6 inhibition. (FIGS. 5A and 5B). […] MDA-MB-468 and BT549 cells remained to be insensitive to TubA with or without GC7 pretreatment (FIG. 5A). […]
(§2) The CellTiter 96® AQueous One Solution (Promega) was used to perform cell proliferation experiments. […] Absorbance readings were measured at 490 nm wavelength at 1.5, 2 and 3 hours (absorbance is directly proportional to the number of living cells).

BT549 cells = assay: as above; format: cell-based, human; settings: TubA 1 μM pretreatment, GC7 0.1 nM to 1 mM
Description: as §1, §2

N=C(N)NCCCCCCCN.O=S(=O)(O)O [GC7, N1-Guanyl-1,7-diaminoheptane]
TGFβ-induced EMT, E-cadherin protein expression (E-cadherin in 4T1 cells): dramatically increased | change of potency of GC7 by TubA pretreatment (cell viability) (MDA-MB-468 cells): this effect was not seen in the three other cell lines | change of potency of GC7 by TubA pretreatment (cell viability) (BT549 cells): this effect was not seen in the three other cell lines
